Measurements reported in patent US11834453B2, “Substituted pyrimido[5,4-d]pyrimidines as HER2 inhibitors” (Array BioPharma Inc., priority 2020, dated 2023).

Legend:
[1] = target: ErbB2 WT (Homo sapiens (Human), UniProt P04626); assay: ErbB enzyme assay (CisBio HTRF KinEASE-TK), Assay 2; assay type: biochemical
Procedure, shortened: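 ErbB2 phosphorylates 250 nM biotin-TK substrate at 1 mM ATP in 25 mM HEPES pH 7.4, 10 mM MgCl2, 0.01% Triton X-100 and 2% DMSO, for 30 min at 22 °C. Product is detected by HTRF with Sa-XL665 and TK-Ab-Cryptate. Percent of control is set by DMSO-only wells and pre-quenched wells.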

[2] = target: T1, MDR1 (P-gp) (Homo sapiens (Human), UniProt P08183); settings: pig, LLC-PK1, 2 h, 1 μM
T1 sequence (P08183 whole entry): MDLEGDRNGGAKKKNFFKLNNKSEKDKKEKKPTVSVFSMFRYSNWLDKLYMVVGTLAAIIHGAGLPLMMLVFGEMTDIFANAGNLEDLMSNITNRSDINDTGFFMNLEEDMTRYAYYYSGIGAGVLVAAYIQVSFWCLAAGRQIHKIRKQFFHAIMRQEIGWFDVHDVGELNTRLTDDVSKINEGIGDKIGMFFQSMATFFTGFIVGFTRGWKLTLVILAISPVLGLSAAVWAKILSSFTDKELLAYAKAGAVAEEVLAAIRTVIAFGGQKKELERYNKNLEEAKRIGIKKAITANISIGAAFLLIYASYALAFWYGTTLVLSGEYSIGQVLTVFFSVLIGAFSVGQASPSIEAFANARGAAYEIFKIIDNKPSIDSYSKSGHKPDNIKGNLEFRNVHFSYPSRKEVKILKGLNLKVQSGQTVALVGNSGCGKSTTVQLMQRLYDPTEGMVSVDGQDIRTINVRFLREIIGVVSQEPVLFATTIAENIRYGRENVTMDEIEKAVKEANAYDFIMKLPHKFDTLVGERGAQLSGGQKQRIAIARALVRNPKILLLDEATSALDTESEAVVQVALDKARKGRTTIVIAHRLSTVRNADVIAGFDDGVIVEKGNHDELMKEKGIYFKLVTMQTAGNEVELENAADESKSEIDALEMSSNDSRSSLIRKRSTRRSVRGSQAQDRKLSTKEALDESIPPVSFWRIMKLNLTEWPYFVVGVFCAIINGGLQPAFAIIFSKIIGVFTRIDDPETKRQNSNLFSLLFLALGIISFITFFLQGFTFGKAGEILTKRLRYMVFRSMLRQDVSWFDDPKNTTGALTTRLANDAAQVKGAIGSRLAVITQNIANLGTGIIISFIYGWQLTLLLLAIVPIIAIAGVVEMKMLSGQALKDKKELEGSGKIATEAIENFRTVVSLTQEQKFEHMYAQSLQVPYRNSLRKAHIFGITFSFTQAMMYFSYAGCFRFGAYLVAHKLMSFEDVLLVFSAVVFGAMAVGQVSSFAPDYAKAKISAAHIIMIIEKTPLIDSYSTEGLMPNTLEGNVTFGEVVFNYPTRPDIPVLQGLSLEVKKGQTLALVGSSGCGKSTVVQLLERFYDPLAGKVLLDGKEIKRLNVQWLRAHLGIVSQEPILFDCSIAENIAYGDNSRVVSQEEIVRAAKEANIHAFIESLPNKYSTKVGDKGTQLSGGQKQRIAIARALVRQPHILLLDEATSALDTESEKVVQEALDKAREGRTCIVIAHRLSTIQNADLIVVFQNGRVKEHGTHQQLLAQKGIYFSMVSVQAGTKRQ

[3] = target: ErbB2 insYVMA (HER2-YVMA, SEQ ID NO: 2) (Homo sapiens, UniProt P04626, INS775YVMA/P1170A); assay: biochemical; settings: ErbB2 insYVMA enzyme assay; read-out: Assay 1 IC50
[4] = target: EGFR wild type (EGFR WT) (Homo sapiens (Human), UniProt P00533); assay: Cellular phosphorylation assay, EGF-stimulated EGFR phosphorylation in engineered NIH 3T3 cells, Phospho-EGFR DuoSet IC ELISA, Assay 5; assay type: cell-based
Chain of EGFR wild type (EGFR WT) (P00533 25-1210): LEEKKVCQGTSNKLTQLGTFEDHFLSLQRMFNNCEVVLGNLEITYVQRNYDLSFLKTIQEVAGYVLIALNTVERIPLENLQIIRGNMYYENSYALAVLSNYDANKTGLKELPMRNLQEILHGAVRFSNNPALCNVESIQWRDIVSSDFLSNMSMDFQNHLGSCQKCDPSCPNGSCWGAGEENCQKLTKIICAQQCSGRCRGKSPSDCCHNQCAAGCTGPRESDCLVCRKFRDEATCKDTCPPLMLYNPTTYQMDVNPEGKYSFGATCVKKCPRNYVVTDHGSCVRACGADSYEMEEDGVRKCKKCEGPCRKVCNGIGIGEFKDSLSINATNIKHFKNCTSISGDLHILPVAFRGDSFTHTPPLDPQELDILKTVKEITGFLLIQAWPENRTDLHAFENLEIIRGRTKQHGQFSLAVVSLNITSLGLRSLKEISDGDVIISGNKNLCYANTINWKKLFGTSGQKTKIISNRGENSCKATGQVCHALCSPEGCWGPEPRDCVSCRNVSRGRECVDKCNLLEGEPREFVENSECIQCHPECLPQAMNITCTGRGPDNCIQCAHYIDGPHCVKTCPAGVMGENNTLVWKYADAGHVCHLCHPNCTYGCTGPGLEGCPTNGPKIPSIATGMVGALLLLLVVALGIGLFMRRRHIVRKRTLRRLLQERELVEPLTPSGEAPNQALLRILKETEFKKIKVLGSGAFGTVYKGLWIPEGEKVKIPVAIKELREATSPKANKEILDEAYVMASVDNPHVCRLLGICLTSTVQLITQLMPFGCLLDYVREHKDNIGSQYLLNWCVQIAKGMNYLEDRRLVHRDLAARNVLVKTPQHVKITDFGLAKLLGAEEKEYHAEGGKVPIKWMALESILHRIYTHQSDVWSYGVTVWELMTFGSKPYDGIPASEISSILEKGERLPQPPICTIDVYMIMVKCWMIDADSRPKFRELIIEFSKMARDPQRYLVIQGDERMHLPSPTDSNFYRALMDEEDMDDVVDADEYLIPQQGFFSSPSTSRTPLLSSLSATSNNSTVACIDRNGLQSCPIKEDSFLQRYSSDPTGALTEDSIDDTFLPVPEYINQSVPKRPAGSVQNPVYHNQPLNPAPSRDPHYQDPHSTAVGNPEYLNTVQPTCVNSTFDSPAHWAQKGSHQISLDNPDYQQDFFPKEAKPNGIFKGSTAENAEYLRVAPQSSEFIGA
Procedure, shortened: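 NIH 3T3 cells expressing EGFR WT (20,000/well, attached overnight) were exposed to serially diluted compound for 1 h at 37 °C, then stimulated with 100 ng/ml rEGF for 10 min. Phospho-EGFR in lysates measured by sandwich ELISA optical density; IC50 from curves.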

[5] = target: ErbB2 with Exon 20 YVMA insertion (HER2-YVMA) (Homo sapiens (Human), UniProt P04626, INS775YVMA); assay: Cellular phosphorylation assay, constitutive ErbB2 phosphorylation (Y1196) in engineered NIH 3T3 cells, Assay 4; assay type: cell-based
Procedure, shortened: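 Engineered NIH 3T3 cells expressing HER2-YVMA treated with compounds 1 h at 37 °C, then formaldehyde-fixed and methanol-permeabilized. pErbB2 Y1196 detected by in-cell infrared immunofluorescence, normalized to GAPDH. IC50 from the normalized curves.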

[6] = target: BCRP (Homo sapiens (Human), UniProt Q9UNQ0); settings: dog, 2 h, 1 μM
Chain of BCRP (Q9UNQ0 whole entry): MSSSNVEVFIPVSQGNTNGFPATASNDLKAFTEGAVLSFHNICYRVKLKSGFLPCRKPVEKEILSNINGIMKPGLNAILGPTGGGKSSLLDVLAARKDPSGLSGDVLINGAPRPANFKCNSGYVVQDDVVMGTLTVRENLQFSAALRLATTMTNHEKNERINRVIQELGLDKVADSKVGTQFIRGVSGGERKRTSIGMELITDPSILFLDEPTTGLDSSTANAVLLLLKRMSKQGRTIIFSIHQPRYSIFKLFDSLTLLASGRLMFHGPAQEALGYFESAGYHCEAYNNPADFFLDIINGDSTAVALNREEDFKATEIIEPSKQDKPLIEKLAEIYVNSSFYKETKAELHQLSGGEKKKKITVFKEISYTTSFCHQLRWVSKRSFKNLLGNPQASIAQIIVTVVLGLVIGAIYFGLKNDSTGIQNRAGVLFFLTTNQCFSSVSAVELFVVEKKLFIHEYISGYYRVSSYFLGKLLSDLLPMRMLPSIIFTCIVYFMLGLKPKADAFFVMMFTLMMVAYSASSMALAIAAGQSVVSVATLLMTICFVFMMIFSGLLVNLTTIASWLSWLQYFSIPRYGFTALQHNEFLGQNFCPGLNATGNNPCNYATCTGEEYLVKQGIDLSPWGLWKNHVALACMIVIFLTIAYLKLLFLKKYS

[7] = target: T1, MDR1 (P-gp); settings: dog, MDCK-MDR1, 2 h, 1 μM
[8] = target: EGFR (Homo sapiens (Human), UniProt P00533); assay: ErbB enzyme assay (CisBio HTRF KinEASE-TK), Assay 3; assay type: biochemical
Chain of EGFR (P00533 25-1210): as the sequence (P00533 25-1210) above
Procedure, shortened: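 Kinase incubated 30 min at 22 °C with 250 nM biotinylated TK substrate, 1 mM ATP and serially diluted compound in 25 mM HEPES pH 7.4, 10 mM MgCl2, 0.01% Triton X-100, 2% DMSO. Phosphorylation read by HTRF (Sa-XL665/TK-Ab-Cryptate); IC50 from 4-parameter fit of percent of control.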

Cc1cc(Nc2ncnc3cnc(N4CCC45CCOC5)nc23)ccc1Oc1ccc2c(c1)ncn2C (racemic) [Example 111, rac-(R)—N-(3-methyl-4-((1-methyl-1H-benzo[c]imidazol-5-yl)oxy)phenyl)-6-(6-oxa-1-azaspiro[3.4]octan-1-yl)pyrimido[5,4-d]pyrimidin-4-amine]
IC50 [1]: 24 nM | Assay 6 Pe Ratio [2]: 1.3 | IC50 [3]: 28.2 nM | IC50 [4]: 5000 nM | IC50 [5]: 13 nM | Assay 9 Pe Ratio [6]: 1.6 | Assay 7 Pe Ratio [7]: 1.7 | IC50 [8]: 3530 nM

Cc1cc(Nc2ncnc3cnc(N4[C@H]5CC[C@@H]4[C@H](O)C5)nc23)ccc1Oc1ccc2c(c1)ncn2C (racemic) [Example 104, ±(1R,2R,4S)-7-(8-((3-methyl-4-((1-methyl-1H-benzo[d]imidazol-5-yl)oxy)phenyl)amino)pyrimido[5,4-d]pyrimidin-2-yl)-7-azabicyclo[2.2.1]heptan-2-ol]
IC50 [1]: 18.2 nM | IC50 [3]: 18.6 nM | IC50 [4]: 5000 nM | IC50 [5]: 31.8 nM | Assay 9 Pe Ratio [6]: 16.0 | Assay 7 Pe Ratio [7]: 1.4 | IC50 [8]: 4680 nM
